Data taken from article PMC9780825, “Combining mKate2-Kv1.3 Channel and Atto488-Hongotoxin for the Studies of Peptide Pore Blockers on Living Eukaryotic Cells” (Toxins, 2022).

Key:
Kv1.3 channel = settings: whole-cell patch-clamp; mouse channels, L929 mouse fibroblast cells; read-out: Kd (published); cited from earlier work
Text: Table 1 The Kap values for the complexes formed by K-ΔKv1.3 with the studied pore blockers and published data on the affinities of these blockers. | column: KTx1; ChTx; AgTx2; TEA

[1] = target: K-ΔKv1.3 (N-terminally truncated human Kv1.3 tagged with mKate2) (Homo sapiens, UniProt P22001); experiment: Fluorescent competitive binding assay (FCBA), displacement of A-HgTx from K-ΔKv1.3; design: expressed in transfected cells; host or cells: HEK293 (transient transfection with pmKate2-KCNA3-del)
K-ΔKv1.3 (N-terminally truncated human Kv1.3 tagged with mKate2), sequence (P22001 53-575 limits assumed, stated change not applied): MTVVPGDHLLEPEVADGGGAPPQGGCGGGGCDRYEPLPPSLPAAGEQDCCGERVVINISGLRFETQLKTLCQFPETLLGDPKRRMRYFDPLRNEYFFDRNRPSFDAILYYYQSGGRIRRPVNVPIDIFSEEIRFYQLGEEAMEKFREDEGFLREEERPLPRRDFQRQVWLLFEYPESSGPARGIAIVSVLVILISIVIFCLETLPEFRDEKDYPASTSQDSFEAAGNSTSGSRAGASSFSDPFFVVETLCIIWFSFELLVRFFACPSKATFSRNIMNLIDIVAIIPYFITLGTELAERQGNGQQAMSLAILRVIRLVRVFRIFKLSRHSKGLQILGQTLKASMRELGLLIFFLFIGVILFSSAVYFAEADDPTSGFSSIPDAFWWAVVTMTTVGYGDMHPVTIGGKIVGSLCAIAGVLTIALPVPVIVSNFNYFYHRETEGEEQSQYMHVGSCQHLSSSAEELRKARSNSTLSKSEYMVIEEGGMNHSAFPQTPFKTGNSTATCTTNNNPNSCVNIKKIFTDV
Text: To quantitatively characterize formation of complexes between A-HgTx and K-ΔKv1.3 on cell membranes, the confocal images of A-HgTx bound at the membrane of the K-ΔKv1.3 presenting cells were subjected to the treatment procedure as follows. Regions of interest (ROIs) corresponding to the plasma membranes stained with K-ΔKv1.3 were selected. Using a set of these ROIs and a threshold procedure (to null a background signal from pixels without K-ΔKv1.3 signal), the binary (0;1) mask that describes membranous localization of K-ΔKv1.3 was created. The images of K-ΔKv1.3 and A-HgTx distribution were multiplied by the corresponding mask. Next, average intensities of fluorescence of K-ΔKv1.3 (Ici) and A-HgTx (Ili) were calculated for each ROI (i.e., for each i-cell), and a ratio Ri was calculated as follows. Ri = (Ili − Ilb)/(Ici − Icb) (1) where Ilb and Icb are intensities of background signals in the fluorescent images of A-HgTx and Kv1.3 channels, respectively. Calculating Ri (i.e., normalizing A-HgTx intensity to that of K-ΔKv1.3), a correction was introduced for variations in a level of K-ΔKv1.3 expression on the membrane of particular cells. Ri values of 15–20 cells were averaged to obtain the Rav value, and a standard deviation was calculated.
Concentration of A-HgTx was 2 nM. Concentration of pore blockers C varied as indicated in the graph.
When Kd of A-HgTx and IC50 for the studied compound are known, the apparent dissociation constant Kap of complexes between the compound and channel can be calculated using the Cheng-Prusoff equation [50]:Kap = IC50/(1 + L/Kd)(4) where L is the concentration of A-HgTx in the competitive binding experiment.
In A-HgTx binding experiments, cells were incubated with A-HgTx (0.15–4 nM) for 30 min (37 °C, 5% CO2) in the complete medium. In competitive binding experiments, cells were incubated with A-HgTx (2 nM) and selected pore blocker at variable concentrations (0.5–100 nM for recombinant peptides and 1–20 mM for TEA) for 30 min (37 °C, 5% CO2) in the complete medium.
Experiments with HEK293 cells were performed with a laser scanning confocal microscope Leica-SP2 (Leica Microsystems GmbH, Wetzlar, Germany). The water-immersion 63×/1.2 NA HCX PL APO objective was used.
Fluorescence of mKate2-fused hKv1.3 was excited at the 561 nm wavelength and recorded in the 650–700 nm range. Fluorescence of A-HgTx was excited at the 488 nm wavelength and recorded in the 495–535 nm range. Distributions of A-HgTx and mKate2 fluorescence in cells were imaged using sequential scanning to avoid interference of intrinsic cellular fluorescence excited at the 488 nm with the mKate2 fluorescence.
Each experimental point in the curves describing interaction A-HgTx with mKate2-tagged Kv1.3 channels is an average over 15–25 treated images of cells. […]

With `CC[N+](CC)(CC)CC` [TEA, tetraethylammonium] as the molecule, how does the Kd (Kv1.3 channel) read?
The Kd was 10 mM.

And the Kd ([1]; Cheng-Prusoff from IC50, 2 nM A-HgTx, blockers 0.5–100 nM (peptides) or 1–20 mM (TEA), 30 min, 37 °C, 5% CO2, complete medium, HEK293 cells, mean ± SEM, three independent measurements, read-out: Kap, apparent dissociation constant of complexes formed by K-ΔKv1.3 with pore blocker)?
Its Kd is 2 mM.

What about the “active concentration range (FCBA)” value ([1]; FCBA, HEK293 cells, result in words) of the same molecule?
The value was “active in the millimolar concentration range”.

What about the “displacement of A-HgTx from the complexes with K-ΔKv1.3” value ([1]; living HEK293 cells, 2 nM A-HgTx, result in words) of the same molecule?
Its value is “A-HgTx is also displaced”.
